Experimental findings from patent US20230293537A1, “USE OF ACETAMIDE DERIVATIVE IN PREVENTION AND TREATMENT OF ALZHEIMER'S DISEASE” (ACADEMY OF MILITARY MEDICAL SCIENCES, priority 2020, published 2023) are described below.

The test system of the experiment is 5×FAD transgenic mice. Description: Morris water maze test of spatial learning and memory in 5×FAD transgenic mice. It is filed as in vivo. An excerpt: Animals: 5×FAD transgenic mice, male, SPF grade, initial body weight of 25-35 g; provided by Zhang Cheng Laboratory of Peking University. Male 5×FAD transgenic mice produced by breeding 5×FAD transgenic mice with WT mice and their littermate WT mice were used for the experiments, weighing 27-35 g. The 5×FAD transgenic mice were used as acute AD mouse model, the mice could develop AD pathological features at two or three months old, and behavioral changes appeared at five months old. The mice were administered at four months old, and after continuous administration for two months, the spatial learning and memory abilities of the mice were tested by water maze.
(1) Administration: 4-month-old mice were divided into four groups, namely WT (physiological saline), 5×FAD (physiological saline), 5×FAD (YL-IPA08, 0.3 mg/kg), 5×FAD (YL-IPA08, 1 mg/kg), intragastrically (i.g.) administered, once a day. After continuous administration for 8 weeks, the spatial learning and memory ability of the mice were tested by Morris water maze.
(2) Morris water maze test: The Morris water maze test was performed after 8 weeks of the administration of YL-IPA08 (0.3, 1 mg/kg). The water maze consisted of a circular stainless steel pool with a diameter of 120 cm and a depth of 60 cm, and the diameter of the escape platform was 10 cm. The day before the test, the mice were allowed to swim in the water maze for 30 s-60 s to acclimate to the environment. During the training, the mice were allowed to swim freely for 60 s to find the platform. If the mice found the hidden platform autonomously, they were allowed to stay there for 30 seconds, and then taken out. If the mice could not find the platform autonomously, they were guided onto the platform and allowed to stay there for 30 seconds, and then taken out. Training was performed twice a day for 5-7 days until the latency of WT mice to find the platform no longer decreased, and the latency, distance and path of the mice to find the hidden platform in the water maze were recorded. The test was performed 24 hours after the last training session, in which the platform was removed, and the mice were allowed to explore freely in the water maze for 1 minute, and the number of times the mice crossed the position of the platform and the time they stayed in the quadrant of the platform were recorded. There were 8-10 mice per group.
All data were presented by x±SEM. Data statistics and analysis were performed using GraphPad Prism 6.0. Significant differences were assessed by unpaired Student's t test, one-way ANOVA or two-way ANOVA followed by Tukey's multiple comparison test.

Where [1] appears, read: 5×FAD transgenic mice, YL-IPA08 0.3, 1 mg/kg i.g. once a day for 8 weeks, 6 days training, vs solvent control group of 5×FAD mice.

For the molecule `CCN(Cc1ccccn1)C(=O)Cc1c(-c2ccc(Cl)c(Cl)c2)nc2cc(C)ccn12.Cl` [YL-IPA08, N-ethyl-N-(2-pyridylmethyl)-2-[2-(3,4-dichlorophenyl)-7-methyl-imidazo[1,2-a]pyridin-3-yl]-acetamide·hydrochloride], for the setting “5×FAD mice, 0.3, 1 mg/kg i.g. once a day for 8 weeks, Morris water maze”, the “learning and cognitive impairment in 5×FAD mice (overall conclusion)” value is “can improve learning and cognitive impairment”. In addition, where the note is “5×FAD transgenic mice, 0.3, 1 mg/kg i.g. once a day for 8 weeks, comparison of the mice in each group”, the “average swimming speed (test period)” value is on record as “not significantly different”. Further, the “number of times the mice crossed the platform (test period)” value (5×FAD transgenic mice, 0.3, 1 mg/kg i.g. once a day for 8 weeks, test 24 hours after last training, platform removed, 1 minute, vs solvent control group) is “significantly higher”. Under setting [1], the “distance to find the platform (water maze training)” value is recorded as “significantly shortened” and the “latency to find the platform (water maze training)” value is listed as “significantly shortened”.
